Data on 25 molecules can be found in patent US20230083012A1, “DIHYDROPYRIMIDINE DERIVATIVES AND USES THEREOF IN THE TREATMENT OF HBV INFECTION OR OF HBV-INDUCED DISEASES” (priority 2019, published 2023).

For one data set, the system named is HBV. Nature of the data set: Anti-HBV activity in HepG2.2.15 cells (HBV DNA in culture medium by qPCR). The class given is cell-based. The settings on record: Hepatitis B virus, HepG2.2.15, 144 h, HepG2.2.15 cells, 6 days treatment, HBV DNA in culture medium quantified by real-time PCR; read-out: EC50. An outline of the steps: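 Secreted HBV DNA was measured by real-time PCR after 6-day compound exposure of HepG2.2.15 cells (2% FBS, 37 °C, re-dosed after 3 days), giving EC50 from 8-point 1:3 series starting at 10 or 1 uM. Cytotoxicity (CC50) run separately at lower cell density, top 100 uM.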
Background: Real-time PCR tracks product formation cycle by cycle.

Data set [1] in a line: Cytotoxicity determination in HepG2.2.15 cells (CCK-8 cell viability). The conditions noted are these: human, 6 days treatment, CCK-8 assay, highest concentration 100 uM. Format: cell-based. An outline of the steps: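 Viability measured by CCK-8 absorbance (450 nm, 630 nm reference, 2.5 h at 37° C) after six days of treatment, medium and compound renewed on day 3. Top concentration 100 uM, eight threefold dilutions in triplicate; cells plated at 5,000/well in 2% FBS medium; CC50 derived.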
Background: Formazan colour is commonly taken as a measure of viable cells.

The term EC50 denotes the midpoint of the concentration-response curve. Broadly, the CC50 is the concentration that lowers cell viability or growth by half. A higher CC50 goes with better tolerance by the cells.

As to `COC(=O)C1=C(CN2CC(F)(F)[C@@H]3[C@H]2CN(C)N3CCC(C)(C)C(=O)O)NC(c2nccs2)=N[C@H]1c1ccc(F)c(F)c1Cl` (single isomer, unassigned) [Compound 95, 4-((cis)-4-((6-(2-Chloro-3,4-difluorophenyl)-5-(methoxycarbonyl)-2-(thiazol-2-yl)-3,6-dihydropyrimidin-4-yl)methyl)-6,6-difluoro-2-methylhexahydropyrrolo[3,2-c]pyrazol-1(2H)-yl)-2,2-dimethylbutanoic acid], the EC50 with HBV was 24 nM. In data set [1], this molecule yielded a CC50 at 6 days of 8200 nM.
Turning to `CCOC(=O)C1=C(CN2CC(F)(F)[C@@H]3[C@H]2CN(C(=O)C2(F)CC2)N3CCC(C)(C)C(=O)O)NC(c2nccs2)=N[C@H]1c1cccc(F)c1C` (single isomer, unassigned) [Compound 85], in the data set with HBV, the EC50 is 69 nM. For the same molecule, the CC50 at 6 days in data set [1] came out at 22600 nM.
As to `CCOC(=O)C1=C(CN2CC(F)(F)[C@H]3[C@@H]2CCN3CCC(C)(C)C(=O)O)NC(c2nccs2)=N[C@H]1c1cccc(F)c1Cl` (single isomer, unassigned) [Compound 145, 4-((cis)-4-((6-(2-chloro-3-fluorophenyl)-5-(ethoxycarbonyl)-2-(thiazol-2-yl)-3,6-dihydropyrimidin-4-yl)methyl)-6,6-difluorohexahydropyrrolo[3,2-b]pyrrol-1(2H)-yl)-2,2-dimethylbutanoic acid], the EC50 in the data set with HBV is 0.9 nM. The same molecule yielded a CC50 at 6 days in data set [1] of 26000 nM.
Taken in the same sequence, the figures for `CCOC(=O)C1=C(CN2CC(F)(F)C3CC(C(=O)O)CC32)NC(c2nccs2)=N[C@H]1c1cccc(F)c1C` (stereo partly drawn) [Compound 2, (cis)-1-(((S)-5-(ethoxycarbonyl)-6-(3-fluoro-2-methylphenyl)-2-(thiazol-2-yl)-3,6-dihydropyrimidin-4-yl)methyl)-3,3-difluorooctahydrocyclo-penta[b]pyrrole-5-carboxylic acid] were 4.1 nM and 26700 nM.
Take `CCOC(=O)C1=C(CN2CC(F)(F)[C@H]3[C@@H]2CCN3C[C@@H]2CC[C@@H]2C(=O)O)NC(c2nccs2)=N[C@H]1c1cccc(F)c1C` (single isomer, unassigned) [Compound 130A]: in the data set with HBV, the EC50 was found to be 7.6 nM. The molecule further displayed a CC50 at 6 days in data set [1] of 22400 nM.
For the molecule `COC(=O)C1=C(CN2CC(F)(F)[C@@H]3CN(CC(C)(C)C(=O)O)C[C@@H]32)NC(c2nccs2)=N[C@H]1c1ccc(F)c(F)c1Cl` (single isomer, unassigned) [Compound 21B, 3-((cis)-1-((6-(2-chloro-3,4-difluorophenyl)-5-(methoxycarbonyl)-2-(thiazol-2-yl)-3,6-dihydropyrimidin-4-yl)methyl)-3,3-difluorohexahydropyrrolo[3,4-b]pyrrol-5(1H)-yl)-2,2-dimethylpropanoic acid], the EC50 in the data set on HBV stood at 22.7 nM. In addition, the CC50 at 6 days in data set [1] came out at 97300 nM.
In the case of `CCOC(=O)C1=C(CN2CC(F)(F)C3C(=O)N(C[C@H](C)C(=O)O)C[C@@H]32)NC(c2nccs2)=N[C@H]1c1cccc(F)c1C` (single isomer, unassigned) [Compound 181B], in the data set with HBV, the EC50 was 9.5 nM. The same molecule displayed a CC50 at 6 days in data set [1] of 69900 nM.
For the molecule `CCOC(=O)C1=C(CN2CC(F)(F)[C@@H]3CN(C4(C(=O)O)CC4)C[C@@H]32)NC(c2nccs2)=N[C@H]1c1cccc(F)c1C` (single isomer, unassigned) [Compound 196], in the data set on HBV, the EC50 turned out to be 3.3 nM. The molecule further came in with a CC50 at 6 days in data set [1] of 12800 nM.
For `CCOC(=O)C1=C(CN2CC(F)(F)C3CN(CC4(C(=O)O)CC4)CC32)NC(c2nccs2)=N[C@H]1c1cccc(F)c1C` (some centres unmarked) [Compound 16] the same measures were 112 nM and 37200 nM.
For `CCOC(=O)C1=C(CN2CC(F)(F)[C@@H]3[C@H]2CN(C)N3CC(C)(C)C(=O)O)NC(c2nccs2)=N[C@@H]1c1ccc(F)nc1C` (single isomer, unassigned) [Compound 97] the same measures were 77 nM and greater than 100000 nM.
For the molecule `CCOC(=O)C1=C(CN2CC(F)(F)[C@H]3[C@@H]2CCN3C[C@H]2C[C@](C)(C(=O)O)C2)NC(c2nccs2)=N[C@H]1c1cccc(F)c1C` (single isomer, unassigned) [Compound 116B], the EC50 in the data set with HBV turned out to be 2.5 nM. In data set [1], this molecule had a CC50 at 6 days of 10600 nM.
On to `[2H]C1([2H])C[C@H]2[C@@H](N1CCC(C)(C)C(=O)O)C(F)(F)CN2CC1=C(C(=O)OCC)[C@H](c2cccc(F)c2C)N=C(c2nccs2)N1` (single isomer, unassigned) [Compound 157], for which, in the data set with HBV, the EC50 is 0.8 nM. It took 24800 nM to reach half-maximal cytotoxicity in data set [1] (CC50 at 6 days).
As to `COC(=O)C1=C(CN2CC(F)(F)[C@H]3[C@@H]2CCN3CCC(C)(C)C(=O)O)NC(c2nccs2)=N[C@H]1c1cccc(F)c1Cl` (single isomer, unassigned) [Compound 128, 4-((cis)-4-((6-(2-Chloro-3-fluorophenyl)-5-(methoxycarbonyl)-2-(thiazol-2-yl)-3,6-dihydropyrimidin-4-yl)methyl)-6,6-difluorohexahydropyrrolo[3,2-b]pyrrol-1(2H)-yl)-2,2-dimethylbutanoic acid], in the data set on HBV, the EC50 was 0.8 nM. In data set [1], this molecule registered a half-maximal cytotoxic concentration (CC50) at 6 days of 40100 nM.
As for `CCOC(=O)C1=C(CN2C[C@@H](F)[C@@]3(F)C(=O)N(CC(C)(C)C(=O)O)C[C@@H]23)NC(c2nccs2)=N[C@H]1c1cccc(F)c1C` (single isomer, unassigned) [Compound 204A], the EC50 in the data set with HBV was determined as 11.2 nM. In data set [1], this molecule returned a CC50 at 6 days of 88900 nM.
As to `CCOC(=O)C1=C(CN2CC(F)(F)C3C(=O)N(C(=O)CC(C)(C)C(=O)O)C[C@@H]32)NC(c2nccs2)=N[C@H]1c1cccc(F)c1C` (single isomer, unassigned) [Compound 190], the EC50 with HBV turned out to be 4.3 nM. The molecule further yielded a CC50 at 6 days in data set [1] of 28700 nM.
For `CCOC(=O)C1=C(CN2CCC3C(=O)N(CC(C)(C)C(=O)O)CC32)NC(c2nccs2)=N[C@H]1c1cccc(F)c1C` (some centres unmarked) [Compound 25] the same measures were 95.2 nM and 95500 nM.
With `COC(=O)C1=C(CN2CC(F)(F)[C@@H]3[C@H]2CON3CCC(C)(C)C(=O)O)NC(c2nccs2)=N[C@H]1c1cccc(F)c1C` (single isomer, unassigned) [Compound 160], in the data set on HBV, the EC50 was determined as 14 nM. For the same molecule, in data set [1], the CC50 at 6 days stood at 100000 nM.
With `CCOC(=O)C1=C(CN2CC(F)(F)[C@@H]3[C@H]2CON3CCC(C)(C)C(=O)O)NC(c2nc(C)cs2)=N[C@H]1c1ccc(F)c(F)c1F` (single isomer, unassigned) [Compound 174, 4-((cis)-4-((5-(ethoxycarbonyl)-2-(4-methylthiazol-2-yl)-6-(2,3,4-trifluorophenyl)-3,6-dihydropyrimidin-4-yl)methyl)-6,6-difluorohexahydro-1H-pyrrolo[3,2-c]isoxazol-1-yl)-2,2-dimethylbutanoic acid], the EC50 in the data set with HBV stood at 15 nM. The CC50 at 6 days in data set [1] is greater than 50000 nM.
On to `COC(=O)C1=C(CN2CC(F)(F)[C@@H]3[C@H]2CN(C)N3CCC(C)(C)C(=O)O)NC(c2nccs2)=N[C@H]1c1ccc(F)cc1Cl` (single isomer, unassigned) [Compound 94], for which, in the data set with HBV, the EC50 was found to be 14 nM. Besides, the CC50 at 6 days in data set [1] was found to be 25000 nM.
With `CCOC(=O)C1=C(CN2CC(F)(F)[C@@H]3CN(S(=O)(=O)NC(C)=O)C[C@@H]32)NC(c2nccs2)=N[C@H]1c1cccc(F)c1C` (single isomer, unassigned) [Compound 32], the EC50 with HBV worked out at 3.4 nM. In data set [1], the CC50 at 6 days was 31800 nM.
For `CCOC(=O)C1=C(CN2CC(F)(F)[C@@H]3CN(c4ncc(C(=O)O)cn4)C[C@@H]32)NC(c2nccs2)=N[C@H]1c1cccc(F)c1C` (single isomer, unassigned) [Compound 54] the same measures were 49.2 nM and 55200 nM.
For `CCOC(=O)C1=C(CN2CC(F)(F)[C@@H]3[C@H]2CN(C)N3CCC(C)(C)C(=O)O)NC(c2nccs2)=N[C@H]1c1cccc(F)c1Cl` (single isomer, unassigned) [Compound 102, 4-((cis)-4-((6-(2-chloro-3-fluorophenyl)-5-(ethoxycarbonyl)-2-(thiazol-2-yl)-3,6-dihydropyrimidin-4-yl)methyl)-6,6-difluoro-2-methylhexahydropyrrolo[3,2-c]pyrazol-1(2H)-yl)-2,2-dimethylbutanoic acid], the EC50 in the data set with HBV came out at 13.5 nM. It took 53800 nM to reach half-maximal cytotoxicity in data set [1] (CC50 at 6 days).
Taken in the same sequence, the figures for `CCOC(=O)C1=C(CN2CC(F)(F)[C@H]3[C@@H]2CCN3CCC(C)(C)C(=O)O)NC(c2nccs2)=N[C@@H]1c1ccc(F)nc1C` (relative stereo) [Compound 121, 4-((cis)-4-(((R)-5-(ethoxycarbonyl)-6-(6-fluoro-2-methylpyridin-3-yl)-2-(thiazol-2-yl)-3,6-dihydropyrimidin-4-yl)methyl)-6,6-difluorohexahydropyrrolo[3,2-b]pyrrol-1(2H)-yl)-2,2-dimethylbutanoic acid] were 8.7 nM and greater than 100000 nM.
For the molecule `CCOC(=O)C1=C(CN2CC(F)(F)C3C(=O)N(CC(C)(C)C(=O)O)CC32)NC(c2nccs2)=N[C@H]1c1cccc(F)c1C` (some centres unmarked) [Compound 5], in the data set with HBV, the EC50 amounted to 22.7 nM. In data set [1], this molecule returned a CC50 at 6 days of 90100 nM.
Consider `CCOC(=O)C1=C(CN2CC(F)(F)[C@@H]3CN(C(=O)C(C)(C)C(=O)O)C[C@@H]32)NC(c2nccs2)=N[C@H]1c1cccc(F)c1C` (single isomer, unassigned) [Compound 9A], for which the EC50 in the data set with HBV is 11.1 nM. This molecule also registered a CC50 at 6 days in data set [1] of 57800 nM.
